Test results: patent US5312817A, “Treatment of fatigue syndrome” (priority 1991, dated 1994)
Where a name gives a salt, the structure may show the parent alone. Read-outs that look alike come from different tables or passages of the source.

Legend:
[1] = system: cholinesterase in hemolyzed whole blood (hemolysate); test: Sigma Diagnostics Cholinesterase (PTC) kit, hemolysate of patient blood samples; type: biochemical, human; conditions: for Hemolysate ChE activity: no addition = 1.00, blood samples from 3 patients
Source text: (§1) HChE=(EChE×Hct*)+(PChE×(1--Hct*))
By doing this, the values are obtained directly.
The results are shown below in table 1.1.

[2] = target: butyrylcholinesterase (pseudocholinesterase) in serum (Homo sapiens, UniProt P06276); conditions: for Serum ChE activity: no addition = 1.00, blood samples from 3 patients
butyrylcholinesterase (pseudocholinesterase) in serum, sequence (P06276 29-602): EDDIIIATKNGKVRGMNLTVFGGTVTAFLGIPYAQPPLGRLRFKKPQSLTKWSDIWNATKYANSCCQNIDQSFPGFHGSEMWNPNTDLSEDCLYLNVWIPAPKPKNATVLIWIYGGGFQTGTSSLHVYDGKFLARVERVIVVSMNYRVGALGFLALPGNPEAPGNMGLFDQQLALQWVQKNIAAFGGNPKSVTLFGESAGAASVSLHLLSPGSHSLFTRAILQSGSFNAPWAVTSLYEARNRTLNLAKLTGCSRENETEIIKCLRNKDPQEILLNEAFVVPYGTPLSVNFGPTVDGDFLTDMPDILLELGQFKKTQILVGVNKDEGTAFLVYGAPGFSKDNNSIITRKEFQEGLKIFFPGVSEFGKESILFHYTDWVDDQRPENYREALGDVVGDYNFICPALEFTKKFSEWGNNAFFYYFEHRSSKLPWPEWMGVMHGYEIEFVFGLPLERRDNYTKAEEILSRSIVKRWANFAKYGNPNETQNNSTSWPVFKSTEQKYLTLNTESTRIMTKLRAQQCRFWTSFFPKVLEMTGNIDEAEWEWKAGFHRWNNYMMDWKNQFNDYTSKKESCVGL
Source text: SIGMA DIAGNOSTICS® CHOLINESTERASE (PTC) kit, available from Sigma Diagnostics, can be used for determining the activity and selectivity of cholinesterase inhibitors. In the following, it is illustrated how the kit is used for the determination of the activity and selectivity of Nivalin (Galanthamine hydrobromide).
Reactions involved in the cholinesterase assay are as follows: [drawing 3]
Thiocholine+5,5'-Dithiobis-2-Nitrobenzoic Acid→5-Thio-2-NitrobenzoicAcid
5-Thio-2-Nitrobenzoic Acid is assessed by measuring the absorbance at 405 nm. The rate of change in absorbance at 405 nm is directly proportional to cholinesterase activity.
The activity of erythrocyte cholinesterase may be calculated on the basis of the measurement of butyrylcholinesterase (pseudocholinesterase) in serum and cholinesterase in hemolyzed whole blood (hemolysate), both measured simultaneously by the method described above, and evaluated according to the hematocrit value according to the formula
as §1
In the above formulae, EChE is erythrocyte cholinesterase activity, PChE is plasma cholinesterase activity, HChE is hemolysate cholinesterase activity, and Hct is hematocrit value of the sample.
Another way of assessing the cholinesterase activity is to measure the plasma cholinesterase and the cholinesterase in purified hemolyzed erythrocytes. By doing this, the values are obtained directly.
Blood samples from 3 patients were tested with the Sigma test. The tests were carried out with samples where no Nivalin was added and with samples where 1.25 μg/ml Nivalin and 2.5 μg/ml were added in vitro.

[3] = cited from earlier work
[4] = system: acetylcholinesterase as opposed to butyrylcholinesterase; conditions: cited from earlier work; for selectivity for acetylcholinesterase as opposed to butyrylcholinesterase: in vitro method by Thomsen et al.
[5] = type: physicochemical; conditions: room temperature
Protocol: Galanthamine and its acid addition salts form crystals. […] If necessary, pharmaceutically-acceptable suspension aids may be employed. Typically, such a suspension will be employed at a concentration of 0.1-50 mg/ml, such as 1-50 mg/ml, more commonly 5-40 mg/ml, for example, 5-30 mg/ml or 10-40 mg/ml, such as 10-30 mg/ml, especially 20-30 mg/ml of galanthamine. As mentioned above, typical dosage rates when administering galanthamine by injection are the range 0.01-20 mg per day depending upon the patient. […] In other cases, dosages as low as 5 mg and as high as 200 mg per day may be appropriate for persons in this body weight range.

[6] = Side effects in treated patients; type: in vivo, human
Protocol: A complete elimination of metabolites and galanthamine takes place in 72 hours. […] The common side effects, other than the ones related to cholinergic crisis, are either nausea or vomiting, and a slight headache. However, these side effects are rare, especially when care is taken to start medication in low doses such as mentioned above.
Although galanthamine must be considered as having a high degree of safety, there have been certain side effects in a few of the patients treated. These have been slight nausea in about 30% of the cases (the nausea, however, disappearing after about one week of treatment), vomiting and dizziness in 5-10% of the patients (also disappearing after about one week of treatment in most cases), and more severe side effects in 4-6% of the patients. These more severe side effects must be considered acceptable in view of the effect of the drug; however, in patients who are suspected of developing arrhythmia, it should be considered to administer, e.g., atropine in combination with the treatment according to the invention.

[7] = system: persons suffering from Chronic Fatigue Syndrome; test: Double-blind cross-over trial in Chronic Fatigue Syndrome: patient-completed visual analogue scales; type: in vivo, human; set-up: Sleep Disturbance visual analogue scale, mean / Fatigue visual analogue scale, mean / Myalgia visual analogue scale, mean / Work Capacity/Satisfaction visual analogue scale, mean / Memory visual analogue scale, mean / Dizziness visual analogue scale, mean / Sleep visual analogue scale, mean / Work visual analogue scale, mean: scale not given here
Source text: (§2) 20 persons suffering from Chronic Fatigue Syndrome fulfilling the criteria described in example 4 or 5.
(§3) Each patient received treatment for a minimum of 8 weeks. The first 2 weeks incorporated an escalating schedule to stabilise the patient on an appropriate dose. The trial was running for eight weeks.
(§4) 11 of the persons were randomly allocated to galanthamine treatment, and the remaining 9 to placebo treatment. The protocol for the trial made provisions for the clinician to opt after two weeks of treatment for transfer to the alternative treatment.
(§5) The data available for the evaluation covered groups of patient-completed visual analogue scales to assess sleep disturbance, fatigue, myalgia, work capacity/satisfaction, and dizziness, together with time per response on a visual search task.
In order to assess any underlying, overall performance difference between the galanthamine and placebo treated patients, the median (the statistic which differentiates the upper and lower 50% of scores) of the changes across all scales, was computed for the placebo treated patients.

[8] = system: persons suffering from Chronic Fatigue Syndrome; test: Double-blind cross-over trial in Chronic Fatigue Syndrome: clinician's transfer to alternative treatment; type: in vivo, human; conditions: after two weeks of treatment; 9/9 on placebo; exact p=0.00006
Source text: as §2, §3, §4

[9] = system: persons suffering from Chronic Fatigue Syndrome; test: Double-blind cross-over trial in Chronic Fatigue Syndrome: visual search task; type: in vivo, human
Source text: as §2, §3, §4, §5

[10] = system: persons suffering from Chronic Fatigue Syndrome; test: Double-blind cross-over trial in Chronic Fatigue Syndrome: Cognitive Failures Questionnaire; type: in vivo, human
Source text: as §2, §3
11 of the persons were randomly allocated to galanthamine treatment, and the remaining 9 to placebo treatment. The protocol for the trial made provisions for the clinician to opt after two weeks of treatment for transfer to the alternative treatment. […]

[11] = system: auditory evoked potentials in the brain stem; test: Auditory brain stem response; type: in vivo, human
Protocol: The auditory brain stem response test is based on the observation that manio-depressive patients are hypersensitive to cholinergic influences, one manifestation hereof being hypersensitivity to auditory signals as assessed by the increase of amplitude of auditory evoked potentials in the nuclei of the auditory system in the brain stem, i.e. on the "brain side" of the blood brain barrier. […] See also example 3.
Electrical potentials caused by click-stimulation in the ears are measured with electrodes positioned outside on the head of the examined parson. In the configuration of the potentials are components from the brain stem and the brain.
A patient suffering from bipolar manio-depression in the depressive stats and a healthy person, respectively.
Tablet containing 10 mg galanthamine

[12] = system: acetylcholinesterase in the erythrocytes; conditions: within 2 minutes after 10 mg i.v., healthy volunteer; cited from earlier work
[13] = system: butyrylcholinesterase in plasma; conditions: after 10 mg i.v., healthy volunteer; cited from earlier work
[14] = use as anticurare agent in anesthesiology in Eastern Block countries since around 1958; cited from earlier work
[15] = all galanthamine treated patients, 1 Week, N = 19
[16] = all galanthamine treated patients, 2 Weeks, N = 19
[17] = all galanthamine treated patients, 4 Weeks, N = 18
[18] = all galanthamine treated patients, 8 Weeks, N = 17
[19] = all galanthamine treated patients, Baseline, N = 19
[20] = randomly allocated to galanthamine (N=11), After 1 Week
[21] = randomly allocated to galanthamine (N=11), After 2 Weeks
[22] = randomly allocated to galanthamine (N=11), Baseline
[23] = 2 hours after 10 mg tablet, treated compared to untreated

SMILES: COc1ccc2c3c1O[C@H]1C[C@@H](O)C=C[C@@]31CCN(C)C2 [galanthamine hydrobromide, Galanthamine hydrobromide]
- Hemolysate ChE activity ([1]; 1.25 μg/ml added in vitro): 0.96
- Hemolysate ChE activity ([1]; 2.50 μg/ml added in vitro): 0.86
- change of hemolysate cholinesterase activity with increased concentration ([1]; in words): significant reduction
- Serum ChE activity ([2]; 1.25 μg/ml added in vitro): 0.98
- Serum ChE activity ([2]; 2.50 μg/ml added in vitro): 0.97
- change of serum cholinesterase activity on addition ([2]; in words): do not show any statistically significant change
- elimination half life ([3]; in vivo): over four
- absorption from the gut ([3]; in words): absorbed rapidly from the gut
- passage of the blood brain barrier ([3]; in words): transverses the blood brain barrier easily
- renal elimination ([3]; in words): practically complete renal elimination
- selectivity for acetylcholinesterase as opposed to butyrylcholinesterase ([4]; hydrobromide): 50 fold

SMILES: COc1ccc2c3c1O[C@H]1C[C@@H](O)C=C[C@@]31CCN(C)C2 [galanthamine]
- solubility in water [5]: only sparingly soluble
- slight nausea, share of cases ([6]; disappearing after about one week of treatment): about 30%
- vomiting and dizziness, share of patients ([6]; disappearing after about one week of treatment in most cases): 5-10%
- more severe side effects, share of patients ([6]; human, in vivo): 4-6%
- Dizziness visual analogue scale, mean [7, 15]: 8.96
- Fatigue visual analogue scale, mean [7, 15]: 26.63
- Memory visual analogue scale, mean [7, 15]: 5.41
- Myalgia visual analogue scale, mean [7, 15]: 14.25
- Sleep visual analogue scale, mean [7, 15]: 17.26
- Work visual analogue scale, mean [7, 15]: 10.22
- Dizziness visual analogue scale, mean [7, 16]: 6.94
- Fatigue visual analogue scale, mean [7, 16]: 20.64
- Memory visual analogue scale, mean [7, 16]: 4.79
- Myalgia visual analogue scale, mean [7, 16]: 11.24
- Sleep visual analogue scale, mean [7, 16]: 15.51
- Work visual analogue scale, mean [7, 16]: 8.21
- Dizziness visual analogue scale, mean [7, 17]: 6.30
- Fatigue visual analogue scale, mean [7, 17]: 17.42
- Memory visual analogue scale, mean [7, 17]: 4.33
- Myalgia visual analogue scale, mean [7, 17]: 12.01
- Sleep visual analogue scale, mean [7, 17]: 11.89
- Work visual analogue scale, mean [7, 17]: 7.40
- Dizziness visual analogue scale, mean [7, 18]: 4.77
- Fatigue visual analogue scale, mean [7, 18]: 17.81
- Memory visual analogue scale, mean [7, 18]: 4.50
- Myalgia visual analogue scale, mean [7, 18]: 10.51
- Sleep visual analogue scale, mean [7, 18]: 10.88
- Work visual analogue scale, mean [7, 18]: 7.34
- Dizziness visual analogue scale, mean [7, 19]: 8.39
- Fatigue visual analogue scale, mean [7, 19]: 28.00
- Memory visual analogue scale, mean [7, 19]: 5.10
- Myalgia visual analogue scale, mean [7, 19]: 16.32
- Sleep visual analogue scale, mean [7, 19]: 19.45
- Work visual analogue scale, mean [7, 19]: 9.21
- galanthamine treated patients changes on the analogue scales that fall above the placebo median ([7]; first two weeks of treatment, across all scales, exact p=0.033): 68.18%
- Dizziness visual analogue scale, mean [7, 20]: 9.00
- Fatigue visual analogue scale, mean [7, 20]: 29.76
- Memory visual analogue scale, mean [7, 20]: 5.89
- Myalgia visual analogue scale, mean [7, 20]: 15.95
- Sleep Disturbance visual analogue scale, mean [7, 20]: 17.90
- Work Capacity/Satisfaction visual analogue scale, mean [7, 20]: 11.61
- Dizziness visual analogue scale, mean [7, 21]: 8.79
- Fatigue visual analogue scale, mean [7, 21]: 25.21
- Memory visual analogue scale, mean [7, 21]: 5.62
- Myalgia visual analogue scale, mean [7, 21]: 13.58
- Sleep Disturbance visual analogue scale, mean [7, 21]: 18.42
- Work Capacity/Satisfaction visual analogue scale, mean [7, 21]: 9.64
- Dizziness visual analogue scale, mean [7, 22]: 9.05
- Fatigue visual analogue scale, mean [7, 22]: 29.41
- Memory visual analogue scale, mean [7, 22]: 5.31
- Myalgia visual analogue scale, mean [7, 22]: 17.58
- Sleep Disturbance visual analogue scale, mean [7, 22]: 20.78
- Work Capacity/Satisfaction visual analogue scale, mean [7, 22]: 9.43
- patients transferred by the clinician to the alternative treatment (failed to benefit) [8]: 1/11
- average time per response on a visual search task, mean (standard error) ([9]; 336 h): 5.51 (0.43)
- average time per response on a visual search task, mean (standard error) [9, 15]: 6.24 (0.40)
- average time per response on a visual search task, mean (standard error) [9, 17]: 5.83 (0.40)
- average time per response on a visual search task, mean (standard error) [9, 18]: 5.25 (0.31)
- average time per response on a visual search task, mean (standard error) [9, 19]: 6.79 (0.36)
- Cognitive Failures Questionnaire, mean (standard error) ([10]; 672 h): 40.94 (3.87)
- Cognitive Failures Questionnaire, mean (standard error) [10, 18]: 38.47 (3.71)
- Cognitive Failures Questionnaire, mean (standard error) [10, 19]: 47.74 (3.56)
- amplitude of auditory brain stem response, depressive patient [11, 23]: dramatically increase of the amplitude
- auditory brain stem response potentials, healthy person [11, 23]: potentials do not change
- ability to cross the blood-brain barrier ([11]; concluded from change of potentials in the depressed person): must be able to cross the blood-brain barrier
- inhibition of acetylcholinesterase in the erythrocytes [12]: 65%
- inhibition of butyrylcholinesterase in plasma [13]: no inhibition
- time to complete elimination of metabolites and galanthamine ([3]; in vivo): 72 h
- duration of an effective concentration ([3]; warranted by elimination half life, probably at least 6 hours): at least 4 hours
- liver toxicity or serious side effects [14]: without any reported case of liver toxicity or serious side effects
- selectivity for acetylcholinesterase as opposed to butyrylcholinesterase [4]: about 50 fold
- in vitro selectivity for acetylcholinesterase opposed the effect on butyrylcholinesterase ([4]; ratio, as reported by Thomsen, Life Sciences 46): 50 to 1
